# From paper PMC9116245, “New 1,2,3-triazole linked ciprofloxacin-chalcones induce DNA damage by inhibiting human topoisomerase I& II and tubulin polymerization” (Journal of Enzyme Inhibition and Medicinal Chemistry, 2022)
# Where two headings read alike, the source gives them in different places.
# Key:
# [1] = tested on: EKVX; type: cell-based; details: Homo sapiens
# [2] = tested on: NCI-H23; type: cell-based; details: Homo sapiens
# [3] = tested on: SW-620; type: cell-based; details: Homo sapiens
# [4] = tested on: UO-31; type: cell-based; details: Homo sapiens
# [5] = tested on: SK-MEL-5; type: cell-based; details: Homo sapiens
# [6] = tested on: SR; type: cell-based, human
# [7] = tested on: CAKI-1; type: cell-based; details: Homo sapiens
# [8] = tested on: A498; type: cell-based; details: Homo sapiens
# [9] = tested on: SF-539; type: cell-based; details: Homo sapiens
# [10] = tested on: HS 578T; type: cell-based
# [11] = tested on: A549/ATCC; type: cell-based; details: Homo sapiens
# [12] = tested on: OVCAR-4; type: cell-based; details: Homo sapiens
# [13] = tested on: MOLT-4; type: cell-based; details: Homo sapiens
# [14] = tested on: T-47D; type: cell-based; details: Homo sapiens, T47D
# [15] = tested on: DU-145; type: cell-based; details: Homo sapiens
# [16] = tested on: HT29; type: cell-based; details: Homo sapiens
# [17] = tested on: SNB-75; type: cell-based; details: Homo sapiens
# [18] = tested on: HCT-15; type: cell-based; details: Homo sapiens
# [19] = tested on: 786-0; type: cell-based; details: Homo sapiens
# [20] = tested on: NCI-H226; type: cell-based; details: Homo sapiens
# [21] = tested on: OVCAR-3; type: cell-based; details: Homo sapiens
# [22] = tested on: UACC-62; type: cell-based; details: Homo sapiens
# [23] = tested on: CCRF-CEM; type: cell-based; details: Homo sapiens
# [24] = tested on: UACC-257; type: cell-based; details: Homo sapiens
# [25] = tested on: M14; type: cell-based; details: Homo sapiens
# [26] = tested on: KM12; type: cell-based; details: Homo sapiens
# [27] = tested on: HOP-62; type: cell-based; details: Homo sapiens
# [28] = tested on: 59 human cancer cell-lines; type: cell-based
# [29] = tested on: ACHN; type: cell-based; details: Homo sapiens
# [30] = tested on: IGROV1; type: cell-based; details: Homo sapiens, IGROV-1
# [31] = tested on: MALME-3M; type: cell-based; details: Homo sapiens
# [32] = tested on: PC-3; type: cell-based; details: Homo sapiens
# [33] = tested on: polymerised tubulin; experiment: Western blot of polymerised tubulin in HCT116 cells; type: cell-based, human; details: HCT116, IC50 values of compounds
# Method: The process of tubulin polymerisation in the cells is important for the completion of mitosis and is targeted for cancer treatment. It has been reported that the suppression of tubulin polymerisation will arrest the cells at the G2/M and it eventually leads to cell death. To test the tubulin-disruptive effect of the CP hybrids, HCT116 cells were analysed by immunocytochemistry. HCT116 cells were incubated for 36 h with IC50 of the CP hybrids (4a, 4b, 4e, 4i, and 4j), nocodazole (a well-known tubulin polymerisation inhibitor, as a positive control), DMSO or Paclitaxel (a well-known tubulin polymerisation inducer, as a negative control), and tubulin was visualised by immunofluorescence microscopy. An antibody for α-tubulin was used. […] Moreover, a Western blot was performed to verify the tubulin polymerisation inhibition ability of the synthesised compounds (Figure 8(B)). The level of polymerised tubulin was decreased in HCT116 cells treated with IC50 values of CP hybrids 4a, 4b, 4e, 4i, 4j, or nocodazole.
# Western blotting analysis for HCT116 cells was performed according to the reported procedure in the literature[77–79] to determine the effects of CP hybrids; 4a, 4b, 4e, 4i, and 4j on the expression of polymerised tubulin, γH2AX, p-ATR, p-CHK1, and p-Cdc25C by using the appropriate antibody. See Supplementary Appendix A.
# [34] = tested on: SF-268; type: cell-based; details: Homo sapiens
# [35] = tested on: HL-60(TB); type: cell-based; details: Homo sapiens
# [36] = tested on: HOP-92; type: cell-based; details: Homo sapiens
# [37] = read-out: LC50 (the source's name)
# [38] = panel mean graph midpoint, Units Molar
smiles,measurement,setting,value
"COc1cc(/C=C/C(=O)c2ccc(-n3cc(CN4CCN(c5cc6c(cc5F)c(=O)c(C(=O)O)cn6C5CC5)CC4)nn3)cc2)cc(OC)c1OC [Compound 4j, (E)-1-cyclopropyl-6-fluoro-4-oxo-7–(4-((1–(4-(3-(3,4,5-trimethoxyphenyl)acryloyl)phenyl)-1H-1,2,3-triazol-4-yl)methyl)piperazin-1-yl)-1,4-dihydroquinoline-3-carboxylic acid]",GI50,[1],4.24 µM
same,CC50,[1]; [37],> 100 µM
same,GI50,[2],2.97 µM
same,CC50,[2]; [37],> 100 µM
same,GI50,[3],1.37 µM
same,CC50,[3]; [37],> 100 µM
same,GI50,[4],1.73 µM
same,CC50,[4]; [37],30.5 µM
same,GI50,[5],2.64 µM
same,CC50,[5]; [37],> 100 µM
same,GI50,[6],0.43 µM
same,GI50,[6]; Homo sapiens,0.434 µM
same,CC50,"[6]; Homo sapiens, read-out: LC50 (the source's name)",> 100 µM
same,GI50,[7],5.1 µM
same,CC50,[7]; [37],51.7 µM
same,GI50,[8],4.18 µM
same,CC50,[8]; [37],39.8 µM
same,GI50,[9],1.91 µM
same,CC50,[9]; [37],10.3 µM
same,TGI,[10]; HS 578 T,>100 µM
same,TGI,[10]; HS 578T,> 1.00E-4 Molar
same,GI50,"[10]; Homo sapiens, HS 578T",3.91 µM
same,CC50,"[10]; Homo sapiens, HS 578T, read-out: LC50 (the source's name)",> 100 µM
same,GI50,[11],2.98 µM
same,CC50,[11]; [37],> 100 µM
same,GI50,[12],3.94 µM
same,CC50,[12]; [37],39.6 µM
same,GI50,[13],3.32 µM
same,CC50,[13]; [37],> 100 µM
same,GI50,[14],3.16 µM
same,CC50,[14]; [37],> 100 µM
same,GI50,[15],3.67 µM
same,LC50 (lethal concentration 50%),[15],> 100 µM
same,GI50,[16]; HT-29,1.24 µM
same,CC50,"[16]; HT-29, read-out: LC50 (the source's name)",> 100 µM
same,GI50,[17],1.49 µM
same,CC50,[17]; [37],> 100 µM
same,GI50,[18],2.25 µM
same,CC50,[18]; [37],> 100 µM
same,GI50,[19],1.67 µM
same,GI50,[20],2.39 µM
same,CC50,[20]; [37],> 100 µM
same,GI50,[21],1.84 µM
same,CC50,[21]; [37],> 100 µM
same,GI50,[22],2.83 µM
same,CC50,[22]; [37],57.7 µM
same,GI50,[23],2.63 µM
same,CC50,[23]; [37],> 100 µM
same,GI50,[24],6.34 µM
same,LC50,[24],> 100 µM
same,GI50,[25],2.49 µM
same,CC50,[25]; [37],> 100 µM
same,GI50,[26],1.57 µM
same,CC50,[26]; [37],> 100 µM
same,GI50,[27],2.49 µM
same,CC50,[27]; [37],> 100 µM
same,GI50,"[28]; Homo sapiens, range over all cancer cell lines",0.21 to 21.1 µM
same,Log10GI50 _MID,[28]; [38],-5.58
same,Log10LC50 _MID,[28]; [38],-4.06
same,Log10TGI _MID,[28]; [38],-4.58
same,GI50,[29],3.5 µM
same,CC50,[29]; [37],> 100 µM
same,GI50,[30],1.64 µM
same,GI50,[31],2.59 µM
same,CC50,[31]; [37],> 100 µM
same,GI50,[32],2.54 µM
same,CC50,[32]; [37],> 100 µM
same,"level of polymerised tubulin, Western blot",[33],decreased
same,GI50,[34],3.09 µM
same,CC50,[34]; [37],> 100 µM
same,GI50,[35],3.18 µM
same,CC50,[35]; [37],> 100 µM
same,GI50,[36],11.7 µM
same,CC50,[36]; [37],> 100 µM
